From ChEMBL document CHEMBL3769303, “Discovery of membrane active benzimidazole quinolones-based topoisomerase inhibitors as potential DNA-binding antimicrobial agents” (Eur J Med Chem, 2016)
≈ marks a conversion by molar mass, not a printed value.

Key:
Type in all cases: functional
[1] = system: Saccharomyces cerevisiae; experiment: Antifungal activity against Saccharomyces cerevisiae ATCC 9763 after 24 hrs by micro broth dilution method; conditions: ATCC 9763, 24 h
[2] = system: Aspergillus flavus; experiment: Antifungal activity against Aspergillus flavus ATCC 204304 after 24 hrs by micro broth dilution method; conditions: ATCC 204304, 24 h
[3] = system: Candida albicans; experiment: Antifungal activity against Candida albicans ATCC 10231 after 24 hrs by micro broth dilution method; conditions: ATCC 10231, 24 h
[4] = system: Salmonella enterica; experiment: Antibacterial activity against Salmonella enterica ATCC 14028 by micro broth dilution method
[5] = system: Staphylococcus aureus; experiment: Antibacterial activity against methicillin-resistant Staphylococcus aureus N315 by micro broth dilution method
[6] = system: Shigella dysenteriae; experiment: Antibacterial activity against Shigella dysenteriae by micro broth dilution method
[7] = system: Bacillus spizizenii; experiment: Antibacterial activity against Bacillus subtilis ATCC 6633 by micro broth dilution method
[8] = Antifungal activity against Candida mycoderma ATCC 9888 after 24 hrs by micro broth dilution method; conditions: Candida vini
[9] = system: Pseudomonas aeruginosa; experiment: Antibacterial activity against Pseudomonas aeruginosa ATCC 27853 by micro broth dilution method
[10] = system: Staphylococcus aureus; experiment: Antibacterial activity against Staphylococcus aureus ATCC 25923 by micro broth dilution method
[11] = system: Escherichia coli; experiment: Antibacterial activity against Escherichia coli DH52 by micro broth dilution method
[12] = system: Escherichia coli; experiment: Antibacterial activity against Escherichia coli JM109 by micro broth dilution method
[13] = system: Micrococcus luteus; experiment: Antibacterial activity against Micrococcus luteus ATCC 4698 by micro broth dilution method; conditions: NCTC 2665
[14] = Antibacterial activity against Bacillus proteus ATCC 13315 by micro broth dilution method
[15] = system: Cyberlindnera jadinii; experiment: Antifungal activity against Candida utilis ATCC 9950 after 24 hrs by micro broth dilution method; conditions: Williopsis jadinii, ATCC 9950, 24 h

Structure (SMILES)	MIC80 [1] [µg/mL]	MIC80 [2] [µg/mL]	MIC80 [3] [µg/mL]	MIC [4] [µg/mL]	MIC [5] [µg/mL]	MIC [6] [µg/mL]	MIC [7] [µg/mL]	MIC80 [8] [µg/mL]	MIC [9] [µg/mL]	MIC [10] [µg/mL]	MIC [11] [µg/mL]	MIC [12] [µg/mL]	MIC [13] [µg/mL]	MIC [14] [µg/mL]	MIC80 [15] [µg/mL]
CCn1cc(C(=O)O)c(=O)c2cc(F)c(N3CCN(c4nc5ccccc5[nH]4)CC3)cc21	32 (≈ 73.5 µM)	16 (≈ 36.7 µM)	8 (≈ 18.4 µM)	2 (≈ 4.59 µM)	4 (≈ 9.19 µM)	4 (≈ 9.19 µM)	2 (≈ 4.59 µM)	16 (≈ 36.7 µM)	2 (≈ 4.59 µM)	2 (≈ 4.59 µM)	2 (≈ 4.59 µM)	8 (≈ 18.4 µM)	4 (≈ 9.19 µM)	1 (≈ 2.3 µM)	8 (≈ 18.4 µM)
CCCCCn1c(CN2CCN(c3cc4c(cc3F)c(=O)c(C(=O)O)cn4C3CC3)CC2)nc2ccccc21	256 (≈ 482 µM)	256 (≈ 482 µM)	8 (≈ 15 µM)	4 (≈ 7.52 µM)	64 (≈ 120 µM)	8 (≈ 15 µM)	4 (≈ 7.52 µM)	2 (≈ 3.76 µM)	2 (≈ 3.76 µM)	128 (≈ 241 µM)	1 (≈ 1.88 µM)	128 (≈ 241 µM)	4 (≈ 7.52 µM)	2 (≈ 3.76 µM)	8 (≈ 15 µM)
O=C(O)c1cn(C2CC2)c2cc(N3CCN(Cc4nc5ccccc5n4Cc4cccc(Cl)c4)CC3)c(F)cc2c1=O	0.5 (≈ 0.853 µM)	0.5 (≈ 0.853 µM)	0.125 (≈ 0.213 µM)	0.25 (≈ 0.427 µM)	0.5 (≈ 0.853 µM)	4 (≈ 6.83 µM)	4 (≈ 6.83 µM)	0.5 (≈ 0.853 µM)	0.125 (≈ 0.213 µM)	8 (≈ 13.7 µM)	0.5 (≈ 0.853 µM)	4 (≈ 6.83 µM)	0.125 (≈ 0.213 µM)	0.5 (≈ 0.853 µM)	0.25 (≈ 0.427 µM)
O=C(O)c1cn(C2CC2)c2cc(N3CCN(Cc4nc5ccc(Cl)cc5[nH]4)CC3)c(F)cc2c1=O	0.25 (≈ 0.504 µM)	0.5 (≈ 1.01 µM)	0.5 (≈ 1.01 µM)	0.5 (≈ 1.01 µM)	0.5 (≈ 1.01 µM)	0.5 (≈ 1.01 µM)	0.5 (≈ 1.01 µM)	0.5 (≈ 1.01 µM)	0.5 (≈ 1.01 µM)	0.5 (≈ 1.01 µM)	0.5 (≈ 1.01 µM)	0.5 (≈ 1.01 µM)	0.25 (≈ 0.504 µM)	0.5 (≈ 1.01 µM)	0.5 (≈ 1.01 µM)
O=C(O)c1cn(C2CC2)c2cc(N3CCN(Cc4nc5ccc(Br)cc5[nH]4)CC3)c(F)cc2c1=O	4 (≈ 7.4 µM)	2 (≈ 3.7 µM)	2 (≈ 3.7 µM)	4 (≈ 7.4 µM)	4 (≈ 7.4 µM)	16 (≈ 29.6 µM)	16 (≈ 29.6 µM)	16 (≈ 29.6 µM)	1 (≈ 1.85 µM)	64 (≈ 118 µM)	8 (≈ 14.8 µM)	32 (≈ 59.2 µM)	16 (≈ 29.6 µM)	8 (≈ 14.8 µM)	4 (≈ 7.4 µM)
CCCCCCCCn1c(CN2CCN(c3cc4c(cc3F)c(=O)c(C(=O)O)cn4CC)CC2)nc2ccccc21	4 (≈ 7.12 µM)	0.5 (≈ 0.89 µM)	8 (≈ 14.2 µM)	4 (≈ 7.12 µM)	2 (≈ 3.56 µM)	16 (≈ 28.5 µM)	32 (≈ 57 µM)	2 (≈ 3.56 µM)	2 (≈ 3.56 µM)	32 (≈ 57 µM)	8 (≈ 14.2 µM)	32 (≈ 57 µM)	4 (≈ 7.12 µM)	4 (≈ 7.12 µM)	2 (≈ 3.56 µM)
CCn1cc(C(=O)O)c(=O)c2cc(F)c(N3CCN(CCc4nc5ccccc5[nH]4)CC3)cc21	64 (≈ 138 µM)	32 (≈ 69 µM)	64 (≈ 138 µM)	32 (≈ 69 µM)	16 (≈ 34.5 µM)	128 (≈ 276 µM)	2 (≈ 4.31 µM)	64 (≈ 138 µM)	32 (≈ 69 µM)	64 (≈ 138 µM)	32 (≈ 69 µM)	32 (≈ 69 µM)	64 (≈ 138 µM)	16 (≈ 34.5 µM)	32 (≈ 69 µM)
CCCCCCn1c(CN2CCN(c3cc4c(cc3F)c(=O)c(C(=O)O)cn4CC)CC2)nc2ccccc21	128 (≈ 240 µM)	128 (≈ 240 µM)	16 (≈ 30 µM)	8 (≈ 15 µM)	32 (≈ 60 µM)	32 (≈ 60 µM)	16 (≈ 30 µM)	8 (≈ 15 µM)	16 (≈ 30 µM)	256 (≈ 480 µM)	4 (≈ 7.5 µM)	64 (≈ 120 µM)	4 (≈ 7.5 µM)	4 (≈ 7.5 µM)	32 (≈ 60 µM)
CCn1cc(C(=O)O)c(=O)c2cc(F)c(N3CCN(Cc4nc5ccccc5n4Cc4ccccc4Cl)CC3)cc21	1 (≈ 1.74 µM)	0.5 (≈ 0.871 µM)	4 (≈ 6.97 µM)	0.5 (≈ 0.871 µM)	0.125 (≈ 0.218 µM)	16 (≈ 27.9 µM)	16 (≈ 27.9 µM)	0.5 (≈ 0.871 µM)	1 (≈ 1.74 µM)	8 (≈ 13.9 µM)	2 (≈ 3.48 µM)	16 (≈ 27.9 µM)	0.5 (≈ 0.871 µM)	4 (≈ 6.97 µM)	2 (≈ 3.48 µM)
COC(=O)c1cn(C2CC2)c2cc(N3CCN(/C=N\c4nc5ccccc5[nH]4)CC3)c(F)cc2c1=O	2 (≈ 4.09 µM)	4 (≈ 8.19 µM)	32 (≈ 65.5 µM)	4 (≈ 8.19 µM)	64 (≈ 131 µM)	8 (≈ 16.4 µM)	2 (≈ 4.09 µM)	16 (≈ 32.8 µM)	2 (≈ 4.09 µM)	32 (≈ 65.5 µM)	8 (≈ 16.4 µM)	8 (≈ 16.4 µM)	4 (≈ 8.19 µM)	4 (≈ 8.19 µM)	8 (≈ 16.4 µM)
O=C(O)c1cn(C2CC2)c2cc(N3CCNCC3)c(F)cc2c1=O [CIPROFLOXACIN]	–	–	–	1 (≈ 3.02 µM)	2 (≈ 6.04 µM)	2 (≈ 6.04 µM)	2 (≈ 6.04 µM)	–	1 (≈ 3.02 µM)	0.5 (≈ 1.51 µM)	–	–	2 (≈ 6.04 µM)	2 (≈ 6.04 µM)	–
